Experimental data published in PMC9946977, “Identification of linderalactone as a natural inhibitor of SHP2 to ameliorate CCl4-induced liver fibrosis” (Frontiers in Pharmacology, 2023).

Biological target: T1, full-length SHP2 (Homo sapiens, UniProt Q06124)
T1 construct: used for the expression and purification of the full-length SHP2; made in house; host or cells: E. coli (similar protocol as for SHP2-PTP)
T1 sequence (Q06124 1-593): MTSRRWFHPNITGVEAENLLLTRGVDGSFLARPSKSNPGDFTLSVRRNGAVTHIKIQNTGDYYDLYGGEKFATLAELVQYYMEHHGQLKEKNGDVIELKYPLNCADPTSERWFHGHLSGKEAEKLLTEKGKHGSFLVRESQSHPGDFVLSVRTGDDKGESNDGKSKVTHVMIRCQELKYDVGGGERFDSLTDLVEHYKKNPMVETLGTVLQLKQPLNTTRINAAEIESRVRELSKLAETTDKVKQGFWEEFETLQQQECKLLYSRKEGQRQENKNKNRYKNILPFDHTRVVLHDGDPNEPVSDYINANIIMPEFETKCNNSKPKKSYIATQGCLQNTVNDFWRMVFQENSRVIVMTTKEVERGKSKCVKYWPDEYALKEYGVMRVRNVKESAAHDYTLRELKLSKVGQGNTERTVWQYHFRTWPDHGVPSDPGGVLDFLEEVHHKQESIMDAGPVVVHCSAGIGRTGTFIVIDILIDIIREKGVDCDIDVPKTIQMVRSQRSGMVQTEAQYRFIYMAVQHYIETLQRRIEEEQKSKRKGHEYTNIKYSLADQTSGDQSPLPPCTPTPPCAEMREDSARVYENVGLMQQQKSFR
Assay: full-length SHP2 inhibition assay (DiFMUP, pIRS-1 activated)
Assay type: biochemical
Conditions: activating peptide p-IRS-1 supplemented; read-out: IC50 on full length SHP2 (SHP2-FL)
Protocol: Cell pellets were collected and suspended in a buffer of 50 mM Tris-HCl (Ph = 8.5), 150 mM NaCl supplemented with 10% glycerol, and lysed by homogeniser (JN-BIO, China). After centrifugation, the collected supernatants were diluted with a Tris-HCl buffer (pH = 8.5) containing 50 mM imidazole and 150 mM NaCl and then loaded onto a Ni-NTA column (#88221, Thermo). The bound SHP2 protein was eluted with a buffer containing 150 and 300 mM imidazole. The pooled protein was loaded onto a HiTrap Q column after dilution in 25 mM Tris-HCl buffer. After elution using a linear gradient of NaCl (0–0.5 M), peak fractions containing the SHP2 protein were concentrated and applied to a gel filtration Superdex 200 column (GE Healthcare). Purified SHP2-PTP proteins were flash-frozen and stored. Similar expression and purification protocols were used for the expression and purification of the full-length SHP2 and SHP2-PTP ^K366A/Q510A double mutants.
A surrogate phosphatase substrate, 6,8-difluoro-4-methylumbelliferyl phosphate (DiFMUP, Thermo Fisher, #D22065), was used to monitor the catalytic activity of SHP2 in a prompt fluorescence assay format. […] The signals were read on a plate reader (SpectraMax iD5, Molecular Devices). […] The inhibitor dose-response curves were evaluated using a normalised IC50 regression curve fitting with control-based normalisation. […]

**Q.** For `C/C1=C\CCC2=C[C@@H](OC2=O)c2c(C)coc2C1` [LIN, linderalactone], which IC50 is on record?
**A.** Its IC50 is 1.98 µM.
